Source: patent publication US5045566A, “Novel imidate insecticides” (ICI Americas Inc., priority 1989, dated 1991)

How the values were obtained:
Type in all cases: in vivo
[1] = system: Tobacco Budworm [Heliothis virescens (Fabricius)] eggs; assay: Tobacco budworm eggs (TBW-E); settings: percent in solution; 2-day old eggs
Description: (§1) The compounds in Tables 1 and 2 above were tested for insecticidal activity using the following testing procedures. LC50 values, based on the results of these tests and calculated according to dosage-mortality curves, are expressed in Table 3.
Tobacco Budworm [Heliothis virescens (Fabricius)]:
(b). Eggs: Paper towel patches of 2-day old eggs of the tobacco budworm were dipped in acetone solutions of the test compound and placed in petri dishes containing a portion of larval rearing medium. Treated eggs were maintained at 78° F. and mortality was recorded after all control eggs had hatched and the young larvae were feeding on the media. Test concentrations ranged from 0.1% downward. The LC-50 value is expressed below in Table 3 under the heading "TBW-E" in terms of percent of the test compound in the solution.

[2] = system: Cabbage Looper [Trichoplusia ni (Hubner)]; assay: Cabbage looper leaf dip (CL), 3-5 days; settings: percent in solution, second-instar larvae
Description: as §1
Cabbage Looper [Trichoplusia ni (Hubner)]:
Test compounds were diluted in a 50-50 acetone-water solution. Cotyledons of hyzini squash (Calabacita abobrinha), approximately 1×1.5 inches, were immersed in the test solutions for 2-3 seconds and placed on a wire screen to dry. The dried leaves were placed in petri dishes containing a moistened piece of filter paper and infested with 5 second-instar cabbage looper larvae. The dishes were placed in a high humidity chamber. Mortality of the larvae was recorded 3-5 days later. Test concentrations ranged from 0.1% downward. The LC-50 value is expressed below in Table 3 under the heading "CL" in terms of percent of the test compound in solution.

[3] = system: Housefly [Musca domestica]; assay: Housefly contact mortality in dishes (HF), 48 hours; settings: μg of test compound per 25 female flies
Description: as §1
Housefly [Musca domestica]:
Test compounds were diluted in acetone and aliquots pipetted onto the bottom of aluminum dishes. To ensure even spreading of the chemical on the bottom of the dishes, 1 ml of acetone containing 0.01% peanut oil was also added to each dish. After all solvents had evaporated, the dishes were placed in circular cardboard cages containing 25 female houseflies, 1-2 days old. The cages were covered on the bottom with cellophane and on the top with tulle netting, and each contained a sugar-water saturated cotton plug for maintenance of the flies. Mortality was recorded after 48 hours. Test levels ranged from 100 μg/25 female houseflies downward. The LC-50 value is expressed below in Table 3 under the heading "HF", in terms of μg of the test compound per 25 female flies.

SMILES | LC50 TBW E (eggs) [1] [%] | LC50 CL [2] [%] | LC50 HF [3] [µg]
CCC(CC)C(=Nc1ccc(C(C)C)cc1)OCc1cccc(Oc2ccccc2)c1 [Compound 321] | > 0.1 | 0.05 | > 100
CC(C)c1ccc(N=C(OCc2cccc(Oc3ccc(F)cc3)c2)C(C)(C)C)cc1 [Compound 322] | > 0.1 | 0.007 | > 100
CC(C)C(=Nc1ccc2c(c1)OCO2)OCc1c(F)c(F)c(F)c(F)c1F [Compound 464] | > 0.1 | 0.08 | > 100
CC(C)C(=Nc1ccc2c(c1)OCO2)OCc1cccc(Oc2ccccc2)n1 [Compound 467] | 0.04 | 0.003 | 6
CC(C)C(=Nc1ccc(F)c(Cl)c1)OCc1cccc(OCc2ccccc2)c1 [Compound 472] | > 0.1 | 0.0025 | > 100
CC(C)C(=Nc1ccc(F)c(Cl)c1)OCc1ccc(F)c(Br)c1 [Compound 473] | > 0.1 | 0.025 | > 100
CC(C)C(=Nc1ccc(F)c(Cl)c1)OCc1coc(Cc2ccccc2)c1 [Compound 474] | > 0.1 | 0.0012 | 8
CC(C)C(=Nc1cccc(C(F)(F)F)c1)OCc1ccc(OCc2ccccc2)cc1 [Compound 476] | > 0.1 | 0.015 | > 100
C=CCOc1cccc(COC(=Nc2ccc(Cl)c(Cl)c2)C(C)C)c1 [Compound 481] | > 0.1 | 0.015 | > 100
CC(C)C(=Nc1ccc(Cl)cc1)OCc1coc(Cc2ccccc2)c1 [Compound 484] | > 0.1 | 0.003 | 16
CC(C)C(=Nc1ccc(F)c(F)c1)OCc1coc(Cc2ccccc2)c1 [Compound 485] | > 0.1 | > 0.1 | 24
CC(C)C(=Nc1ccc(F)c(Cl)c1)OCc1ccc(OCc2ccc(F)cc2)cc1 [Compound 487] | > 0.1 | 0.023 | > 100
CC(C)C(=Nc1cccc(C(F)(F)F)c1)OCc1ccc(OCc2ccc(F)cc2)cc1 [Compound 488] | > 0.1 | 0.025 | > 100
CC(C)C(=Nc1cccc(C(F)(F)F)c1)OCc1cccc(OCc2ccc(F)cc2)c1 [Compound 489] | > 0.1 | < 0.1 | > 100
CC(C)C(=Nc1ccc(F)cc1)OCc1coc(Cc2ccccc2)c1 [Compound 491] | 0.08 | 0.0028 | 9
CC(C)C(=Nc1cccc(C(F)(F)F)c1)OCc1cccc(Oc2ccc(Br)cc2)n1 [Compound 493] | 0.05 | 0.0008 | 36
Cc1ccc(Oc2cccc(COC(=Nc3ccc(F)c(Cl)c3)C(C)C)n2)cc1 [Compound 494] | > 0.1 | 0.003 | 34
Cc1ccc(Oc2cccc(COC(=Nc3cccc(C(F)(F)F)c3)C(C)C)n2)cc1 [Compound 495] | 0.1 | 0.012 | > 100
CC(C)C(=Nc1ccc(C(C)(C)C)cc1)OCc1cccc(Oc2ccccc2)n1 [Compound 496] | > 0.1 | 0.006 | > 100
CC(C)C(=Nc1ccc(C(C)(C)C)cc1)OCc1cccc(Oc2ccc(Cl)cc2)n1 [Compound 497] | > 0.1 | 0.0075 | > 100
